Experimental findings from ChEMBL document CHEMBL1158905, “Two New Bioactive Cyclic Peroxides from the Marine Sponge Plakortis angulospiculatus” (J Nat Prod, 1990) are described below.

One assay has as its system Candida albicans. The assay can be described thus: Antimicrobial activity against Candida albicans ATCC 44506 by broth microdilution method. It counts as functional.
For another assay, the system named is P388. As to the kind of experiment: Cytotoxicity against mouse P388 cells. It counts as functional, cell-based.
The next assay has as its system Aspergillus nidulans. As to the kind of experiment: Antimicrobial activity against Aspergillus nidulans by at 20 ug/disk by disk diffusion method. It is filed as functional, organism-based.
Another assay has as its system Escherichia coli. As to the kind of experiment: Antimicrobial activity against Escherichia coli by at 20 ug/disk by disk diffusion method. It is filed as functional, organism-based.
A further assay relates to Bacillus subtilis. As to the kind of experiment: Antimicrobial activity against Bacillus subtilis by at 20 ug/disk by disk diffusion method. It counts as functional, organism-based.

≈ marks a conversion by molar mass, not a printed value. Calls of active or inactive are those of the source. The rule behind the calls is not given here. A value given as a limit tells only on which side of the number the result lay.

Compound `CC/C=C/C(CC)CC(C)CC1(CC)C=C(CC)C(CC(=O)OC)OO1` (stereo not given) had an MIC against Candida albicans above 50 µg/mL. The same compound returned an IC50 in the assay on P388 of 0.9 µg/mL (≈ 2.46 µM). Also, the result in the assay with Aspergillus nidulans, in the assay on Escherichia coli and with Bacillus subtilis was inactive.
Compound `CCCCC(CC)CC(C)CC1(CC)C=C(CC)C(CC(=O)OC)OO1` (stereo not given) registered an MIC against Candida albicans above 50 µg/mL. Also, the midpoint of inhibition in the assay with P388, the IC50, lay at 0.2 µg/mL (≈ 0.543 µM). The result in the assay with Aspergillus nidulans, in the assay with Escherichia coli and with Bacillus subtilis was inactive.
`CC/C=C/C(CC)CC(C)CC1(CC)C=C(CC)C(CC(=O)O)OO1` (stereo not given) registered an MIC in the assay with Candida albicans of 1.6 µg/mL (≈ 4.54 µM). For the same compound, the 50% inhibitory concentration (IC50) with P388 was 0.3 µg/mL (≈ 0.851 µM). In addition, the result in the assay on Aspergillus nidulans and in the assay on Bacillus subtilis was Active. For the same compound, the outcome in the assay on Escherichia coli was inactive.
In turn, `CCCCC(CC)CC(C)CC1(CC)C=C(CC)C(CC(=O)O)OO1` (stereo not given) came in with a minimal inhibitory concentration (MIC) in the assay with Candida albicans of 1.6 µg/mL (≈ 4.51 µM). The same compound had an IC50 in the assay on P388 of 0.2 µg/mL (≈ 0.564 µM). In addition, the result in the assay with Aspergillus nidulans and with Bacillus subtilis was Active. The outcome with Escherichia coli was inactive.
